T1: NfMCU (mitochondrial calcium uniporter ortholog) (Aspergillus fischeri, UniProt A1CWT6)
T1 sequence (A1CWT6 76-488): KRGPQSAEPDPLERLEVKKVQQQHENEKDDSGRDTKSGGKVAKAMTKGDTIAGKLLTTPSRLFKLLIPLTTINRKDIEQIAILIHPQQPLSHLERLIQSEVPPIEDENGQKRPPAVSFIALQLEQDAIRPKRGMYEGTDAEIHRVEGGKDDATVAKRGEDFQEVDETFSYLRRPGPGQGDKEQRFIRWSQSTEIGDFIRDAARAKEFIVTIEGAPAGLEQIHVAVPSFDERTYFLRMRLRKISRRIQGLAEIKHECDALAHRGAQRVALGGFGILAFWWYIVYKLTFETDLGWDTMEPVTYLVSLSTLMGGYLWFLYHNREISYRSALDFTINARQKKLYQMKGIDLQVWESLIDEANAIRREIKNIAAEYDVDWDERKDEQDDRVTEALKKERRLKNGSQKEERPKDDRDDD

B1: saposin (scaffolding protein, 81 residues) (natural protein)
chain: SLPCDICKDVVTAAGDMLKDNATEEEILVYLEKTCDWLPKPNMSASCKEIVDSYLPVILDIIKGEMSRPGEVCSALNLCESLQ

How the values were obtained:
[1] = biological target: T1, NfMCU (mitochondrial calcium uniporter ortholog); assay: […] flux block in proteoliposomes of purified NfMCU; assay type: cell-based
cryo-EM structure = biological target: the molecule itself; assay: cryo-EM structure

Row | Molecule | IC50 [1] [nM] | stoichiometry N (cryo-EM structure)
1 | [NH2][Ru-3]([NH2])([NH2])([NH3+])([O]C=O)[O][Ru-2]([NH3+])([NH3+])([NH3+])([NH3+])[O]C=O [Ru360] | 500 | –
2 | B1 | – | 6

— article PMC6063787 (Nature, 2018)
